Experimental data from ChEMBL document CHEMBL6103630, “Discovery of Novel 2,4,5-Trisubstituted Pyrimidine Derivatives as Potent and Selective FGFR Inhibitors against Gatekeeper Mutants for the Treatment of NSCLC” (J Med Chem, 2025).
pIC50: −log10 of the molar value. The source made the active and inactive calls. No cut-off for these calls is given here.

Assays:
NCI-H1581 [1] = test: Inhibition of colony formation in human NCI-H1581 cells at 10 nM incubated for 48 hrs by crystal violet staining based assay; assay type: functional, cell-based
L6 [2] = test: Antitumor activity against rat L6 cells harboring FGFR1 V561M mutant xenografted in BALB/c nude mouse assessed as suppression of tumor cell proliferation at 30 to 60 mg/kg by Ki-67 staining based analysis; assay type: functional, organism-based; conditions: dose 30-60 mg/kg
NCI-H1581 [3] = test: Inhibition of AKT (unknown origin) phosphorylation in human NCI-H1581 cells at 40 nM by Western blotting analysis; assay type: cell-based
[4] = Toxicity in BALB/c nude mouse xenografted with human NCI-H1581 cells assessed as change in spleen weight and measured after 14 days; conditions: 336 h, time 14 day
[5] = target: T1, Fibroblast growth factor receptor 2 (Homo sapiens, UniProt P21802); test: Covalent irreversible binding affinity to FGFR2 (unknown origin) by MALDI-TOF MS analysis
Target sequence in this assay (P21802 22-821 limits assumed): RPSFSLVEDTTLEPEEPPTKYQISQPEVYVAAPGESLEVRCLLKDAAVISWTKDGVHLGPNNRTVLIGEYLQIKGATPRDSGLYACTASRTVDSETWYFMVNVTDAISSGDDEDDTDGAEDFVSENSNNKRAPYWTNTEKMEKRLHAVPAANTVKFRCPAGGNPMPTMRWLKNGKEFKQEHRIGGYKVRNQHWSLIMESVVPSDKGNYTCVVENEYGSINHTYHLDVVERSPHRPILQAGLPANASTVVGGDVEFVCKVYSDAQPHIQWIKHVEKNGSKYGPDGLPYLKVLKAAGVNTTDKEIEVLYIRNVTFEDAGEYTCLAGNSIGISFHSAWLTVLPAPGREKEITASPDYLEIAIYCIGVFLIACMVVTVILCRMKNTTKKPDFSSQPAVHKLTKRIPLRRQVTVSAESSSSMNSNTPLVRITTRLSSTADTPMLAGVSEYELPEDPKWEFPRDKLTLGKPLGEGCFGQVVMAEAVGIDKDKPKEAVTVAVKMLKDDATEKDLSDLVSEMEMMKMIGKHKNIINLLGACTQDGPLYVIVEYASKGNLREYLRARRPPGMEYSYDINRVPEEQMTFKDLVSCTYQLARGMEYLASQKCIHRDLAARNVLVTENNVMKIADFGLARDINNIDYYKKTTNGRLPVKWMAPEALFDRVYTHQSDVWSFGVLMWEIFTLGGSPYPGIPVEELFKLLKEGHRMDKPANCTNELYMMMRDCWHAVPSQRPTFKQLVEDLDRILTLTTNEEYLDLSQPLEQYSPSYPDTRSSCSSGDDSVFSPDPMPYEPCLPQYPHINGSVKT

[6] = target: Fibroblast growth factor receptor 3 (Homo sapiens, UniProt P22607); test: Inhibition of wild type FGFR3 (unknown origin) by caliper mobility shift assay
Chain of Fibroblast growth factor receptor 3 (Homo sapiens, UniProt P22607) (P22607 whole entry): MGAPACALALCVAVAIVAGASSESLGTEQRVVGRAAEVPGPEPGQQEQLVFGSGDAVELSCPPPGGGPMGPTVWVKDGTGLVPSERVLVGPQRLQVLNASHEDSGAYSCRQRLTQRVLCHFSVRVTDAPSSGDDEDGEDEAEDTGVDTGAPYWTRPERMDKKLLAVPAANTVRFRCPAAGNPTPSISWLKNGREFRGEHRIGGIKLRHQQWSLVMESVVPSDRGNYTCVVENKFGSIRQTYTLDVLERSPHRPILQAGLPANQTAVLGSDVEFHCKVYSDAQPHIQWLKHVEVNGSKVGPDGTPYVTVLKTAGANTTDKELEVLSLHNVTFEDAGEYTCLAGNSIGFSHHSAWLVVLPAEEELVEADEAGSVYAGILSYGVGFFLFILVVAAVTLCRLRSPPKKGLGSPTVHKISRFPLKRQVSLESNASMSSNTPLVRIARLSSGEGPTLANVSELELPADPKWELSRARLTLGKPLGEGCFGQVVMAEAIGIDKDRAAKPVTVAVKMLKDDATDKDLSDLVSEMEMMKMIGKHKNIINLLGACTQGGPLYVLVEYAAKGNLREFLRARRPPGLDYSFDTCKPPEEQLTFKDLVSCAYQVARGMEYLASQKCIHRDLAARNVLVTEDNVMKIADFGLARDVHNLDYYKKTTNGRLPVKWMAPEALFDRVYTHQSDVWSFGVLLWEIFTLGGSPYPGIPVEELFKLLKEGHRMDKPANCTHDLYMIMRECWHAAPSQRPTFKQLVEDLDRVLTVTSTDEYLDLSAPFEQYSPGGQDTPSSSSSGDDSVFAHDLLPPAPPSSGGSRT

NCI-H1581 [7] = test: Inhibition of cell migration in human NCI-H1581 cells incubated upto 72 hrs by wound healing assay; assay type: functional, cell-based; conditions: dose 10-40 µM
[8] = Toxicity in ICR mouse assessed as drug tolerance at 80 mg/kg, po measured after 7 days; assay type: organism-based; conditions: in vivo, 168 h, time 7 day
NCI-H1581 [9] = test: Inhibition of colony formation in human NCI-H1581 cells incubated for 48 hrs by crystal violet staining based assay; assay type: functional, cell-based; conditions: dose 10-40 nM
[10] = AUC(0 to t) in male Sprague-Dawley rat at 2 mg/kg, iv by UHPLC-MS/MS analysis; assay type: ADME, organism-based; conditions: in vivo
[11] = Toxicity in BALB/c nude mouse xenografted with human NCI-H1581 cells assessed as change in kidney weight and measured after 14 days; assay type: tissue-based; conditions: 336 h, time 14 day
[12] = AUC(0 to t) in male Sprague-Dawley rat at 10 mg/kg, po by UHPLC-MS/MS analysis; assay type: ADME, organism-based; conditions: in vivo
[13] = target: T1, Fibroblast growth factor receptor 2; test: Inhibition of wild type FGFR2 (unknown origin) by caliper mobility shift assay
Target sequence in this assay (P21802 whole entry): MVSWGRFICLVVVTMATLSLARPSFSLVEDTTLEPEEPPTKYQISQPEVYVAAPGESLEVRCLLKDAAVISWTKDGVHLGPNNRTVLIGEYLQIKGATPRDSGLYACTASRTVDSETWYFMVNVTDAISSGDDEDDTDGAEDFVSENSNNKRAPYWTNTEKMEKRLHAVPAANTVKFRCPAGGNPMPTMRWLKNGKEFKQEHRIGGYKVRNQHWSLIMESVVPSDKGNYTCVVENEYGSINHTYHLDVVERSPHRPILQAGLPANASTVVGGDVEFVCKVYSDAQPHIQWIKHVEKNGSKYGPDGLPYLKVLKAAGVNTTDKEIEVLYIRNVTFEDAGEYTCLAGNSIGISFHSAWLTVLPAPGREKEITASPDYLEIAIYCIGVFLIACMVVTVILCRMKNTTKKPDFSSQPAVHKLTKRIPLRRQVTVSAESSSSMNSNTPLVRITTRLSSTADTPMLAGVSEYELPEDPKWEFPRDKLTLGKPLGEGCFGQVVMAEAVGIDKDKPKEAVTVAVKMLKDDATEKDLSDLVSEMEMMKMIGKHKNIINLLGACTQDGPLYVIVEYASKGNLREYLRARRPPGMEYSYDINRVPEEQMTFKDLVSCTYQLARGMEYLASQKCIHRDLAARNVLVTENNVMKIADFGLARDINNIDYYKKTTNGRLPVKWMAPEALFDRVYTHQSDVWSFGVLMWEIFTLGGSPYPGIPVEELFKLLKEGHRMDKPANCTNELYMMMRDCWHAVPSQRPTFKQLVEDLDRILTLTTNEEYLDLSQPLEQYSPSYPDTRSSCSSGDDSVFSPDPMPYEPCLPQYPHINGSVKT

Mus musculus [14] = test: In vivo inhibition of FGFR1 signaling pathway in BALB/c nude mouse xenografted with rat L6 cells harboring FGFR1 V561M mutant assessed as suppression of FGFR1 phosphorylation in tumor at 60 mg/kg by Western blotting analysis; assay type: functional, organism-based
A549 [15] = test: Inhibition of cell migration in human A549 cells at 10 to 40 nM incubated for 48 hrs by crystal violet staining based transwell assay; assay type: functional; conditions: dose 10-40 nM
Mus musculus [16] = test: In vivo inhibition of AKT phosphorylation in BALB/c nude mouse xenografted with human NCI-H1581 cells assessed as reduction in AKT phosphorylation level in tumor by Western blotting analysis; assay type: functional, organism-based
[17] = target: T1, Fibroblast growth factor receptor 2; test: Binding affinity to FGFR2 (unknown origin) at 0.1 uM
Target sequence in this assay (P21802 22-821 limits assumed): as the sequence (P21802 22-821 limits assumed) above

[18] = Toxicity in ICR mouse assessed as change in lung weight at 80 mg/kg, po measured after 7 days; assay type: organism-based; conditions: in vivo, 168 h, time 7 day
[19] = Tmax in male Sprague-Dawley rat at 10 mg/kg, po by UHPLC-MS/MS analysis; assay type: ADME, organism-based; conditions: in vivo
[20] = target: Fibroblast growth factor receptor 3 (Homo sapiens, UniProt P22607, V555L); test: Inhibition of FGFR3 V555L mutant (unknown origin) by caliper mobility shift assay
Chain of Fibroblast growth factor receptor 3 (Homo sapiens, UniProt P22607, V555L) (P22607 23-806 V555L limits assumed): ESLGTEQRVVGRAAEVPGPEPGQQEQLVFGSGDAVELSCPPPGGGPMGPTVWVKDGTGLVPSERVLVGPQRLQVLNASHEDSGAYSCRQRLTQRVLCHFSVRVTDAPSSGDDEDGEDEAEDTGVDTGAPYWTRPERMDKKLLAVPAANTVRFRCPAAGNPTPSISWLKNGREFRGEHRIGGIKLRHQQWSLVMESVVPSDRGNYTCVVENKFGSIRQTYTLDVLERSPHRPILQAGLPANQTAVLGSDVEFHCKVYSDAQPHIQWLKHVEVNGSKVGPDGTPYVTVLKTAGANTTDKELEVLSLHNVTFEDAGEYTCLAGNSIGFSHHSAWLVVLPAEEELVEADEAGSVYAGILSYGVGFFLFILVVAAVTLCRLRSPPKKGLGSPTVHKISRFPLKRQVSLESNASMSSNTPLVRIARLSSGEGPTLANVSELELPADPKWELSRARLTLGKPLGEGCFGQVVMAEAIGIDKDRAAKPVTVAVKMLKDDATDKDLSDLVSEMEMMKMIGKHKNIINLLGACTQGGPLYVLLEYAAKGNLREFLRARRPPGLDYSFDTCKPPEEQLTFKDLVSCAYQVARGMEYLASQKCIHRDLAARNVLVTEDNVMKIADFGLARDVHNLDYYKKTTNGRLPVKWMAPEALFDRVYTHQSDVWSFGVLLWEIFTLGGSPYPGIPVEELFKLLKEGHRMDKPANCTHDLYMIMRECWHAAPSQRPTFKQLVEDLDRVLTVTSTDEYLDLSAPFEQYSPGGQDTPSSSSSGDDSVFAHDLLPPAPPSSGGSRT

[21] = target: Fibroblast growth factor receptor 2 (Homo sapiens, UniProt P21802, V564I)
Chain of Fibroblast growth factor receptor 2 (Homo sapiens, UniProt P21802, V564I) (P21802 22-821 V564I limits assumed): as the sequence (P21802 22-821 limits assumed) above, with V543I counted along it

[22] = Tmax in male Sprague-Dawley rat at 2 mg/kg, iv by UHPLC-MS/MS analysis; assay type: ADME, organism-based; conditions: in vivo
[23] = Nephrotoxicity in ICR mouse assessed as change in Cr level at 80 mg/kg, po; assay type: toxicity, organism-based; conditions: in vivo
[24] = target: Fibroblast growth factor receptor 3 (Homo sapiens, UniProt P22607, V555M)
Chain of Fibroblast growth factor receptor 3 (Homo sapiens, UniProt P22607, V555M) (P22607 23-806 V555M limits assumed): as the sequence (P22607 23-806 V555L limits assumed) above, with L533M counted along it

A549 [25] = test: Inhibition of DNA replication in human A549 cells incubated for 1 hrs by EdU staining based analysis; assay type: functional, cell-based; conditions: dose 10-40 µM
[26] = AUC(0 to infinity) in male Sprague-Dawley rat at 2 mg/kg, iv by UHPLC-MS/MS analysis; assay type: ADME, organism-based; conditions: in vivo
[27] = Antitumor activity against rat L6 cells harboring FGFR V561M mutant xenografted in BALB/c nude mouse assessed as tumor growth inhibition at 60 mg/kg relative to control; assay type: functional; conditions: read-out: TGI
[28] = Cmax in male Sprague-Dawley rat at 2 mg/kg, iv by UHPLC-MS/MS analysis; assay type: ADME, organism-based; conditions: in vivo
[29] = Toxicity in ICR mouse assessed as change in body weight at 80 mg/kg, po measured after 7 days; assay type: organism-based; conditions: in vivo, 168 h, time 7 day
NCI-H1581 [30] = test: Antitumor activity against human NCI-H1581 cells xenografted in BALB/c nude mouse assessed as inhibition of tumor cell proliferation by Ki-67 staining based analysis; assay type: functional
[31] = Toxicity in BALB/c nude mouse xenografted with rat L6 cells harboring FGFR V561M mutant assessed as change in kidney weight at 30 to 60 mg/kg and measured daily for 14 days; assay type: organism-based; conditions: in vivo, 336 h, dose 30-60 mg/kg, time 14 day
A549 [32] = test: cells; conditions: Homo sapiens, A549, 48 h
Description: Antiproliferative activity against human A549 cells assessed as inhibition of cell proliferation incubated for 48 hrs by MTT assay

L6 [33] = test: Antitumor activity against rat L6 cells harboring FGFR1 V561M mutant xenografted in BALB/c nude mouse assessed as induction of apoptosis in tumor at 30 to 60 mg/kg by H and E staining based analysis; assay type: functional, organism-based; conditions: dose 30-60 mg/kg
[34] = Half life in male Sprague-Dawley rat at 2 mg/kg, iv by UHPLC-MS/MS analysis; assay type: ADME, organism-based; conditions: in vivo
[35] = Toxicity in BALB/c nude mouse xenografted with human NCI-H1581 cells assessed as change in AST level at 60 mg/kg; assay type: organism-based; conditions: in vivo
[36] = Toxicity in BALB/c nude mouse xenografted with human NCI-H1581 cells assessed as change in body weight
[37] = Toxicity in ICR mouse assessed as change in heart weight at 80 mg/kg, po measured after 7 days; assay type: organism-based; conditions: in vivo, 168 h, time 7 day
NCI-H1581 [38] = test: Inhibition of cell migration in human NCI-H1581 cells at 40 nM incubated upto 72 hrs by wound healing assay (reference value: 80%); assay type: functional
[39] = Toxicity in ICR mouse assessed as histopathological changes in kidney at 80 mg/kg, po by H and E staining based analysis; assay type: organism-based; conditions: in vivo
[40] = Half life in male Sprague-Dawley rat at 10 mg/kg, po by UHPLC-MS/MS analysis; assay type: ADME, organism-based; conditions: in vivo
[41] = Hepatotoxicity in ICR mouse assessed as change in AST level at 80 mg/kg, po; assay type: toxicity, organism-based; conditions: in vivo
[42] = AUC(0 to infinity) in male Sprague-Dawley rat at 10 mg/kg, po by UHPLC-MS/MS analysis; assay type: ADME, organism-based; conditions: in vivo
[43] = Toxicity in BALB/c nude mouse xenografted with human NCI-H1581 cells assessed as change in lung weight and measured after 14 days; assay type: tissue-based; conditions: 336 h, time 14 day
[44] = Hepatotoxicity in ICR mouse assessed as change in ALT level at 80 mg/kg, po; assay type: toxicity, organism-based; conditions: in vivo

With `C=CC(=O)Nc1ccc(Nc2nc(Nc3ccc(N4C[C@@H](C)N[C@@H](C)C4)c(OC)c3)ncc2Cl)cc1Cl` the inhibition (NCI-H1581 [1]) was “Active; Stronger Inhibition Observed”, the Activity (L6 [2]) was “Active” and the inhibition (NCI-H1581 [3]) was “Active; Greater Inhibition Observed Compared To Infigratinib”. The Activity [4] was “Non-toxic”, the Activity [5] was “Active” and the pIC50 [6] was 7.71. The inhibition (NCI-H1581 [7]) was “Dose-dependent-effect”, the Activity [8] was “Non-toxic” and the inhibition (NCI-H1581 [9]) was “Dose-dependent-effect”. The AUC(0-t) [10] was 1940 ng·h/mL, the Activity [11] was “Non-toxic” and the AUC(0-t) [12] was 7800 ng·h/mL. The pIC50 [13] was 7.81, the inhibition (Mus musculus [14]) was “Active” and the inhibition (A549 [15]) was “Active”. The inhibition (Mus musculus [16]) was “Active”, the Activity [17] was “Not active; Reduced Affinities Observed” and the Activity [18] was “Non-toxic”. For the same compound, the Tmax [19] was 0.5 h, the pIC50 [20] was 8.66 and the pIC50 [21] was 7.52. The Tmax [22] was 4.8 min, the Activity [23] was “Non-toxic” and the pIC50 [24] was 8.37. For the same compound, the inhibition (A549 [25]) was “Dose-dependent-effect”, the AUC(0-inf) [26] was 5400 ng·h/mL and the inhibition in vivo at 60 mg/kg [27] was 69%. For the same compound, the Cmax [28] was 816 ng/mL, the Activity [29] was “Non-toxic” and the Activity (NCI-H1581 [30]) was “Active”. The Activity [31] was “Non-toxic”, the pIC50 (A549 [32]) was 6.42 and the Activity (L6 [33]) was “Active”. For the same compound, the half-life [34] was 3.55 h, the Activity [35] was “Non-toxic” and the Activity [36] was “Non-toxic”. The Activity [37] was “Non-toxic”, the inhibition at 0.04 µM (NCI-H1581 [38]) was 40% and the Activity [39] was “Non-toxic”. The half-life [40] was 5.18 h, the Activity [41] was “Non-toxic” and the AUC(0-inf) [42] was 12900 ng·h/mL. The Activity [43] was “Non-toxic” and the Activity [44] was “Non-toxic”.
